Experimental data reported in US20250002854A1, “METHODS OF GENERATING POPULATIONS OF TUMOUR-INFILTRATING T CELLS” (LYTIX BIOPHARMA AS, priority 2016, published 2025).
Square brackets hold non-standard residues; d marks the D form. Ends that are not written are not given here. Dip = N[C@H](C(=O)O)C(c1ccccc1)c1ccccc1

Tests used:
B16F1 cells [1] = test: LysoTracker DND-26, flow cytometry and confocal microscopy; assay type: cell-based, murine; conditions: 27 μM, 60 minutes
Protocol: Flow cytometry: B16F1 cells were seeded in 6-well plates and allowed to adhere overnight. […] Untreated cells were used as a control. Cells were trypsinized and investigated on a FACS Calibur Flow cytometer, and the results were processed using FlowJo Software (Tree Star, Inc., Ashland, OR, USA). PI was utilized in some experiments to gate away cells with compromised plasma membrane.
Confocal microscopy: B16F1 cells were seeded in 8-well plates (Nunc) at 1×10^4 cells/well and allowed to adhere overnight. Next, cells were treated with 27 μM of LTX-401 for 60 minutes and labelled with LysoTracker DND-26 for 5 minutes and with Hoecsht33342 for nuclear staining. Cells were immediately investigated on a Zeiss Confocal microscope with a controlled temperature and atmosphere.

B16F1 cells [2] = test: Release of ATP (luciferin-luciferase); assay type: cell-based, murine; conditions: 54 μM, up to 120 min
Protocol: Serum-free RPMI 1640 treated cells functioned as a negative and blank control, respectively. Extracellular levels of ATP were measured at the end of the experiment using a luciferin-based ENLITEN ATP Assay kit (Promega, Madison, WI, USA), in which ATP-driven chemoluminescence was recorded on a Luminescence Microplate Reader (Labsystems Luminoskan®, Finland), and expressed as relative light units (RLU).

[3] = test system: tumour tissue sections from patients; test: Clinical histology, CD3/CD8 immunostaining of patient tumours; assay type: in vivo, human
Protocol: Formalin-fixed and paraffin-embedded tumour tissue sections from patients were deparaffinized in xylene and graded alcohols, hydrated and washed in PBS. After antigen retrieval in sodium citrate buffer (pH 6) in a microwave oven, the endogenous peroxidase was blocked by 0.3% H2O2 for 15 min. Sections were incubated overnight at 4° C. with primary antibody; rabbit polyclonal anti-CD3 (clone A0452 Dako) or mouse monoclonal anti-CD8 (clone OX8, ab33786, Abcam). As a secondary antibody, the anti-rabbit-horseradish peroxidase (HRP) SuperPicTure Polymer detection kit (Invitrogen) or Envision system HRP-anti-mouse (Dako) were used. A matched isotype control was used as a control for nonspecific background staining

A375 cells [4] = test: Confocal imaging with Mitotracker (mitochondrial membrane potential); assay type: cell-based, human; conditions: short time after peptide treatment; data not shown
Protocol: Fixed cells, mitotracker—Cells were seeded as for live cell imaging, and treated with Mitotracker CMH2XROS (Invitrogen) at […] for 15 minutes prior to peptide treatment. Cells were treated with 17 μM LTX-315, with negative control serum-free RPMI only. After 60 min of incubation, cells were analyzed using a Zeiss microscope.

A375 cells [5] = test: Release of HMGB1 (Western blot); assay type: cell-based, human; conditions: 35 μM, up to 60 min
Protocol: A375 cells were seeded with 3×10^5 cells/well in 6-well plates in a complete media, and allowed to adhere overnight. Cells were treated with LTX-315 or LTX-328 at 35 μM, and incubated at 37° C. and 5% CO2 for different time points (5, 10, 15, 30, 60 min), and negative controls were serum-free RPMI-1650. Supernatants (S) were collected and centrifuged at 1,400 g for five minutes, and cell lysates (L) were harvested after washing with PBS twice and then subsequently lysed using a 4×Sample buffer (Invitrogen, number), 0.1 M DTT (Sigma number) and water. Supernatants were concentrated using Amicon Ultra 50 K centrifugal filters (Millipore UFC505024), and the cell lysate was sonicated. Both supernatants and lysate were boiled and resolved in a 10% sodium dodecyl sulfate polyacrylamide gel electrophoresis (SDS-PAGE), and then electro transferred to a polyvindiline difluoride (PVDF) membrane (Millipore). The membrane was blocked in 5% milk and incubated with the HMGB1 antibody (rabbit, polyclonal, abcam ab 18256); the membrane was then rinsed several times with TBST, incubated with a horseradish peroxidase (HRP)-conjugated secondary antibody (abcam ab6721), rinsed again with TBST and then developed using WB Luminol Reagent (Santa Cruz Biotechnology, Heidelberg, Germany).

A375 cells [6] = test: Release of cytochrome-C (ELISA); assay type: cell-based, human; conditions: 35 μM
Protocol: A375 cells were seeded as with HMGB1 studies, and treated with 35 μM for different time points (5, 15, 45). Supernatants were collected and concentrated as with HMGB1 studies, and samples from the supernatants were analyzed using a 4.5 hour solid form Cytochrome C-Elisa kit (R&D Systems, USA, #DCTC0) following the manufacturer's description. Shortly thereafter, a 50% diluted sample was analyzed and the optical density was determined using a microplate reader set at 450 nm, and […]. A standard curve was generated for each set of samples assayed. Samples were run in four parallels, and the cytochrome-c released into the supernatant was expressed as a fold over the level of cytochrome-c in the supernatant of untreated cells.

MCA205 sarcomas = test: T-cell depletion, tumour growth of MCA205 sarcomas; assay type: in vivo, C57BL/6 mice; conditions: three intratumoural daily injections of 300 μg
Protocol: Mice were subcutaneously injected into the right flank with 1×10^6 MCA205 cells. Tumour cell lines were inoculated into C57BL/6 mice. Tumour surfaces (longest dimension×perpendicular dimension) were routinely monitored by caliper. When tumours reached a size of 20-25 mm^2 (day 0), mice were administered intratumourally with three consecutive daily injections of 300 μg LTX-315. In T-cell depletion experiments (FIG. 24), anti-CD4 and anti-CD8 monoclonal antibodies (mAbs) (GK1.5 and 53-6.72, respectively; 200 μg per mouse) or their isotype controls (LTF-2 and 2A3, respectively) were injected intraperitoneally 3 and 4 days before the first LTX-315 injection and continued every other 7 days. All mAbs for in vivo use were obtained from BioXcell (West Lebanon, NH, USA), using the recommended isotype control mAbs.

Compound	LysoTracker DND-26 signal (B16F1 cells [1])	extracellular concentration of ATP (B16F1 cells [2])	infiltration of CD3+ and CD8+ cells ([3]; breast carcinoma patient)	infiltration of CD3+ and CD8+ cells ([3]; desmoid tumour patient)	infiltration of CD8+ cells ([3]; malignant melanoma patient)	infiltration of CD3+ and CD8+ cells ([3]; metastatic melanoma patient)	infiltration of CD3+ and CD8+ cells ([3]; myo-epithelioma patient)	Mitotracker mitochondrial signal (A375 cells [4])	HMGB1 translocation from cell lysate to supernatant (A375 cells [5])	cytochrome-C in the supernatant compared to untreated control cells (A375 cells [6])	antitumor effects in presence of antibodies depleting CD4+ and CD8+ T cells (MCA205 sarcomas)
Cl.Cl.NCCNC(=O)C(CN)(CCCc1ccccc1)CCCc1ccccc1 [LTX-401]	induced a decreased signal	quickly rose 60 min after initiating treatment									
K-K-W-W-K-K-W-Dip-K-NH2 (KKWWKKW[Dip]K-NH2) [LTX-315]			infiltration of CD3^+ positive cells	infiltration of CD3^+ positive cells	infiltration of CD8^+ positive cells	infiltration of CD3^+ positive cells	infiltration of CD3^+ positive cells	loss of mitochondrial signal	gradual translocation from the cell lysate to the supernatant detected	three times more	completely abrogated the antitumor effects
